Earlier results on four molecules are cited in patent publication US20070232656A1, “Pharmaceutical Composition And Method For Treating Neurodegenerative Disorders” (Myriad Genetics, Incorporated, priority 2004, published 2007).

Where two headings read alike, the source gives them in different places.

For data set [1], the system named is Aβ42. The following applies: transgenic mouse model.
The conditions of data set [2]: 50 mg and 100 mg doses, human subjects.
Data set [3] has as its system Aβ42. The following applies: CHO cells.
The conditions of data set [4]: for efficacy for treating AD: clinical trials in AD patients (rofecoxib at 25 mg daily).
The conditions of data set [5]: patients having mild cognitive impairment.
The conditions of data set [6]: in vivo Alzheimer's disease excitotoxic model system.

For the molecule `C[C@@H](C(=O)O)c1ccc(-c2ccccc2)c(F)c1` [(R)-2-(2-fluoro-4-biphenylyl)propionic acid], the “lowering of Aβ42” value in the data set with Aβ42 [1] and in the data set with Aβ42 [3] was “lower Aβ42” in each case. In data set [2], the analgesic effect entry was “produced an analgesic effect”. For the same molecule, the “inhibition of COX activity” value with COX is reported as “negligibly inhibits COX activity”.

For `COc1ccc2cc([C@H](C)C(=O)O)ccc2c1` [Naproxen], the “efficacy for treating AD” value in data set [4] was “failed to show efficacy”.

In the case of `CC12CC3CC(C)(C1)CC(N)(C3)C2` [memantine], the “efficacy in treating mild-to-moderate AD” value in data set [4] (mild-to-moderate AD) is listed as “showed efficacy”.

`CS(=O)(=O)c1ccc(C2=C(c3ccccc3)C(=O)OC2)cc1` [rofecoxib]: the “prevention of the development of Alzheimer's disease” value in data set [5] is given as “failed to prevent the development of Alzheimer's disease”. Also, in data set [5] (4.5% for placebo), the “patients who developed AD” value is listed as 6.4%. In addition, in data set [6], the neuroprotection result is reported as “provides neuroprotection”. For the same molecule, the “efficacy for treating AD” value in data set [4] is given as “failed to show efficacy”.
